Data on ten compounds can be found in patent US11059815B2, “Synthesis of small molecule histone deacetylase 6 degraders, compounds formed thereby, and pharmaceutical compositions containing them” (Wisconsin Alumni Research Foundation, priority 2018, dated 2021).

The target of this experiment is T1, HDAC6 (Homo sapiens, UniProt Q9UBN7).
T1 construct: endogenous in cells; host or cells: MM1S (ATCC CRL-2974)
T1 sequence (Q9UBN7 1-1215): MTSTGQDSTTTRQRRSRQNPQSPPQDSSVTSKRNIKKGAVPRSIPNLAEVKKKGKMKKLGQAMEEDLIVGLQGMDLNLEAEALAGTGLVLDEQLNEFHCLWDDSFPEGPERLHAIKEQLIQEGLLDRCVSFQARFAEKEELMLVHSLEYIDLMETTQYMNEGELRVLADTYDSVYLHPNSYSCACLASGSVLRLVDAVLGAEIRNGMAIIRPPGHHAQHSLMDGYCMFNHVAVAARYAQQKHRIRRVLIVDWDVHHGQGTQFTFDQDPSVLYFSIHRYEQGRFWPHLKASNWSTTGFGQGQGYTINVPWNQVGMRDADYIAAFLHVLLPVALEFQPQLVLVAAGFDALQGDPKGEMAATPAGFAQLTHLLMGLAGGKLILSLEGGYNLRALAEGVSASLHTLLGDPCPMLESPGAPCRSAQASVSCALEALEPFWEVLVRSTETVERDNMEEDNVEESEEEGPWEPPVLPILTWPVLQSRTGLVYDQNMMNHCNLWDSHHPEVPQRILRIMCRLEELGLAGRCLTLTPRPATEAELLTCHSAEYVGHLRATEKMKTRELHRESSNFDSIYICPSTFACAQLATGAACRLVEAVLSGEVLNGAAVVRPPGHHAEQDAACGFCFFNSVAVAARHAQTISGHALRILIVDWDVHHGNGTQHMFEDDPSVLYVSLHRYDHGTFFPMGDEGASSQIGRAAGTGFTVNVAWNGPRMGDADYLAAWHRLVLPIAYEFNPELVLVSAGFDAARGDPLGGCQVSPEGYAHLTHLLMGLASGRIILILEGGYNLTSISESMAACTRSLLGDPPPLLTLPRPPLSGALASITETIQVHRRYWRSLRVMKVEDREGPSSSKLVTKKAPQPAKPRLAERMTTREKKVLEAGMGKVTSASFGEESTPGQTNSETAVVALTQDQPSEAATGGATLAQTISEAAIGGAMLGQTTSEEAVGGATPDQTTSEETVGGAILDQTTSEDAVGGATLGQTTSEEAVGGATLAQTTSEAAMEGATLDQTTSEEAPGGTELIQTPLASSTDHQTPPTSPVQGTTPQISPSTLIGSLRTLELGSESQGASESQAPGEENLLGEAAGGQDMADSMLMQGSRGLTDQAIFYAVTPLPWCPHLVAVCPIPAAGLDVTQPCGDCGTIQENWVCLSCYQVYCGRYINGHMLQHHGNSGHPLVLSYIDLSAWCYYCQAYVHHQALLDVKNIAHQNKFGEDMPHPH
As to the kind of experiment: In-cell ELISA of HDAC6 protein level in MM1S cells. The experiment is classed as cell-based. The following applies: 6 h; for inhibition at 0.01 µM / inhibition at 0.1 µM / Dmax: MM1.S; for inhibition at 0.01 µM: 10 nM, n=3, read-out: Degradation (%) 10 nM; for inhibition at 0.01 µM / inhibition at 0.1 µM: 100% minus mean (± SD) relative HDAC6 expression; for inhibition at 0.1 µM: 100 nM, n=3, read-out: Degradation (%) 100 nM; for DC50 / Dmax: 0.1 nM to 1 μM, nonlinear fit, ± SD; for Dmax: read-out: Dmax (Vehicle %). As to the method:
FIG. 9 is a histogram depicting the results of screening of compounds for HDAC6 degradation activity by in-cell ELISA. MM1S cells were treated with compounds at 100 nM (blue bars) or 10 nM (red bars) for 6 h. Data was normalized to vehicle (DMSO)-treated group and the bar graph represents as mean of relative HDAC6 protein level (n=3) with ±SD as error bar. Statistical significance was analyzed by one-way ANOVA. Not significant (ns) P>0.05, *P≤0.05, **P≤0.01, ***P≤0.001, ****P≤0.0001.
FIG. 11 is a graph depicting dose response of selected degrader candidates. MM1S cells were treated for 6 h and analyzed by in-cell ELISA. Data was normalized to vehicle (DMSO)-treated group and dot plot represented as mean relative expression (n=3) with ±SD as error bar. Nonlinear fitting of inhibitor concentration vs. response (three parameters) was generated by GraphPad Prism with R2 from 0.97 to 0.99.
FIG. 15 is a histogram depicting relative HDAC6 expression as a function of linker length for compounds 3a through 3k as described in the Examples section, Part 2. Human MM1S cells were treated with 100 nM degraders for 6 hours and analyzed by in-cell ELISA assay.
FIG. 17 is a dose-response curve for degraders 3j (n=1), 3k (n=12) and 2, at concentrations from 1 nM to 300 nM for 4 h in MM1S. See the Examples, Part 2.
To screen the new series of degraders, an in-cell ELISA assay was developed and validated. The compounds were treated at 100 nM and 10 nM in MM1S cells for 6 h. Resulting cells were then fixed and analyzed by in-cell ELISA. […] Degraders including 1 at 100 nM degraded 73.5% to 85.0% of HDAC6 with minor difference. At 10 nM concentration of compounds, obvious structure-activity-relationship (SAR) was observed. […] For example, 12d, 12h, 12i, 12o and 12p all achieved about 70% degradation. Among the C4-linked series, 12d with medium length linker (5+1) achieved most degradation in sub-series 12a-e (m=1). […] Among C5-linked series, the potency of sub-series 12l-p (m=1) increased with the linker length. […] It appeared that both the distance and linking positions contributed to the degradation efficiency. The rigid triazole ring in the middle of the linker likely modulated the plasticity of degrader-bridged ternary complex.
The amount of cellular HDAC6 was measured in response to concentrations of compounds from 0.1 nM to 1 μM. […] The new degraders had single-digit nanomolar DC50, which was about 3 to 5 fold of improvement from 9.12 nM of degrader 1. […] As discussed above, most PROTACs were designed to avoid degrading other proteins except the targeted POIs. However, in these studies, it was hypothesized that HDAC6 degraders with IKZF degradation will have enhanced anti-proliferation effect MM1S cells.
MM1S cells were harvested and plated with 5×10^5 cells in 100 μL media per well 96-wells plate. After overnight seeding, 25 μL media containing 5× dosing concentration of the compounds or vehicle was added to each well. After 6-hour treatment at 37° C. in a humidified 5% CO2 atmosphere, cells were fixed by adding 125 μL 8% formaldehyde in TBS buffer (137 mM NaCl, 25 mM Tris, 2.7 mM potassium chloride, pH 7.6) and incubated at room temperature (RT) for 15 minutes. Removal of fixing solution was followed by once rinse and twice washes with TBS-T washing buffer (137 mM NaCl, 20 mM Tris, 0.1% Tween, pH 7.6). Cells were then permeabilized by adding 100 μL 0.1% Triton-X in TBS and incubated at RT for 15 minutes. Removal of permeabilizing solution was followed by once rinse and once wash with TBS-T. Cellular endogenous peroxidases were quenched by adding 100 μL 1% H2O2 in TBS and incubation at RT for 20 minutes. Removal of quenching solution was followed by once rinse and once wash with TBS-T. Non-specific binding sites were blocked by adding […] 5% BSA in TBS-T (with 0.02% NaN3) and incubation at 4° C. overnight. […]

In the case of `CCCCN(Cc1ccc(C(=O)NO)cc1)C(=O)Nc1ccc(OCCCCn2cc(CCCNc3cccc4c3C(=O)N(C3CCC(=O)NC3=O)C4=O)nn2)cc1` (stereo not drawn) [Compound 12k, 4-((1-butyl-3-(4-(4-(4-(3-((2-(2,6-dioxopiperidin-3-yl)-1,3-dioxoisoindolin-4-yl)amino)propyl)-1H-1,2,3-triazol-1-yl)butoxy)phenyl)ureido)methyl)-N-hydroxybenzamide], the inhibition at 0.01 µM turned out to be 50.9 ± 2.2% and the inhibition at 0.1 µM was determined as 75.7 ± 0.8%.

With `CCCCN(Cc1ccc(C(=O)NO)cc1)C(=O)Nc1ccc(OCCCCCCn2cc(CNc3cccc4c3C(=O)N(C3CCC(=O)NC3=O)C4=O)nn2)cc1` (stereo not drawn) [Compound 12e, 4-((1-butyl-3-(4-((6-(4-(((2-(2,6-dioxopiperidin-3-yl)-1,3-dioxoisoindolin-4-yl)amino)methyl)-1H-1,2,3-triazol-1-yl)hexyl)oxy)phenyl)ureido)methyl)-N-hydroxybenzamide], the inhibition at 0.01 µM is 66.1 ± 1.1% and the inhibition at 0.1 µM turned out to be 77.8 ± 1.7%.

Take `CCCCN(Cc1ccc(C(=O)NO)cc1)C(=O)Nc1ccc(OCCCCn2cc(CNc3cccc4c3C(=O)N(C3CCC(=O)NC3=O)C4=O)nn2)cc1` (stereo not drawn) [Compound 12c, 4-((1-butyl-3-(4-(4-(4-(((2-(2,6-dioxopiperidin-3-yl)-1,3-dioxoisoindolin-4-yl)amino)methyl)-1H-1,2,3-triazol-1-yl)butoxy)phenyl)ureido)methyl)-N-hydroxybenzamide]: the inhibition at 0.01 µM turned out to be 64.3 ± 3.2% and the inhibition at 0.1 µM was 85 ± 1.2%.

With `CCCCN(Cc1ccc(C(=O)NO)cc1)C(=O)Nc1ccc(OCCCCn2cc(CCNc3cccc4c3C(=O)N(C3CCC(=O)NC3=O)C4=O)nn2)cc1` (stereo not drawn) [Compound 12h, 4-((1-butyl-3-(4-(4-(4-(2-((2-(2,6-dioxopiperidin-3-yl)-1,3-dioxoisoindolin-4-yl)amino)ethyl)-1H-1,2,3-triazol-1-yl)butoxy)phenyl)ureido)methyl)-N-hydroxybenzamide], the inhibition at 0.01 µM was roughly 70% and the inhibition at 0.1 µM is 79.2 ± 0.9%.

On to `CCCCN(Cc1ccc(C(=O)NO)cc1)C(=O)Nc1ccc(OCCn2cc(CNc3cccc4c3C(=O)N(C3CCC(=O)NC3=O)C4=O)nn2)cc1` (stereo not drawn) [Compound 12a, 4-((1-butyl-3-(4-(2-(4-(((2-(2,6-dioxopiperidin-3-yl)-1,3-dioxoisoindolin-4-yl)amino)methyl)-1H-1,2,3-triazol-1-yl)ethoxy)phenyl)ureido)methyl)-N-hydroxybenzamide], for which the DC50 was determined as 3.41 ± 0.52 nM, the Dmax was 88 ± 2.23%, the inhibition at 0.01 µM turned out to be 62.1 ± 1% and the inhibition at 0.1 µM came out at 81.3 ± 2.3%.

Consider `CCCCN(Cc1ccc(C(=O)NO)cc1)C(=O)Nc1ccc(OCCn2cc(CCCNc3cccc4c3C(=O)N(C3CCC(=O)NC3=O)C4=O)nn2)cc1` (stereo not drawn) [Compound 12i, 4-((1-butyl-3-(4-(2-(4-(3-((2-(2,6-dioxopiperidin-3-yl)-1,3-dioxoisoindolin-4-yl)amino)propyl)-1H-1,2,3-triazol-1-yl)ethoxy)phenyl)ureido)methyl)-N-hydroxybenzamide], for which the DC50 is 2.54 ± 0.32 nM, the Dmax came out at 86.3 ± 1.67%, the inhibition at 0.01 µM is roughly 70% and the inhibition at 0.1 µM is 83.1 ± 1%.

Regarding `CCCCN(Cc1ccc(C(=O)NO)cc1)C(=O)Nc1ccc(OCCCCCn2cc(CNc3ccc4c(c3)C(=O)N(C3CCC(=O)NC3=O)C4=O)nn2)cc1` (stereo not drawn) [Compound 12o, 4-((1-butyl-3-(4-((5-(4-(((2-(2,6-dioxopiperidin-3-yl)-1,3-dioxoisoindolin-5-yl)amino)methyl)-1H-1,2,3-triazol-1-yl)pentyl)oxy)phenyl)ureido)methyl)-N-hydroxybenzamide], the inhibition at 0.01 µM was roughly 70% and the inhibition at 0.1 µM was determined as 84.7 ± 1%.

For `CCCCN(Cc1ccc(C(=O)NO)cc1)C(=O)Nc1ccc(OCCn2cc(CNc3ccc4c(c3)C(=O)N(C3CCC(=O)NC3=O)C4=O)nn2)cc1` (stereo not drawn) [Compound 12l, 4-((1-butyl-3-(4-(2-(4-(((2-(2,6-dioxopiperidin-3-yl)-1,3-dioxoisoindolin-5-yl)amino)methyl)-1H-1,2,3-triazol-1-yl)ethoxy)phenyl)ureido)methyl)-N-hydroxybenzamide], the inhibition at 0.01 µM came out at 57.1 ± 1.4% and the inhibition at 0.1 µM came to 81.4 ± 0.6%.

Take `CCCCN(Cc1ccc(C(=O)NO)cc1)C(=O)Nc1ccc(OCCCn2cc(CCNc3cccc4c3C(=O)N(C3CCC(=O)NC3=O)C4=O)nn2)cc1` (stereo not drawn) [Compound 12g, 4-((1-butyl-3-(4-(3-(4-(2-((2-(2,6-dioxopiperidin-3-yl)-1,3-dioxoisoindolin-4-yl)amino)ethyl)-1H-1,2,3-triazol-1-yl)propoxy)phenyl)ureido)methyl)-N-hydroxybenzamide]: the inhibition at 0.01 µM was determined as 64.8 ± 1% and the inhibition at 0.1 µM is 84.2 ± 0.4%.

`CCCCN(Cc1ccc(C(=O)NO)cc1)C(=O)Nc1ccc(OCCn2cc(CCNc3cccc4c3C(=O)N(C3CCC(=O)NC3=O)C4=O)nn2)cc1` (stereo not drawn) [Compound 12f, 4-((1-butyl-3-(4-(2-(4-(2-((2-(2,6-dioxopiperidin-3-yl)-1,3-dioxoisoindolin-4-yl)amino)ethyl)-1H-1,2,3-triazol-1-yl)ethoxy)phenyl)ureido)methyl)-N-hydroxybenzamide]: the inhibition at 0.01 µM was 49.3 ± 0.6% and the inhibition at 0.1 µM was determined as 81.8 ± 0.9%.
